# Laboratory results published in ChEMBL document CHEMBL1131844, “Substituted indoles as potent and orally active 5-lipoxygenase activating protein (FLAP) inhibitors” (Bioorg Med Chem Lett, 1999).
# Columns and labels:
# Rattus norvegicus [1] = test: Compound was evaluated in vivo for its functional activity(in percent) in a hyperreactive rat model of dyspnea; set-up: concentration or dose not given beside the values
# Rattus norvegicus [2] = test: In vivo inhibitory activity against LTB4 biosynthesis by rat pleurisy model (3h pre treatment time periods); type: functional
# Homo sapiens [3] = species on record: Homo sapiens; test: In vitro inhibition of LTB4 biosynthesis in Ca++ ionophore activated human polymorphonuclear (HPMN) leukocytes.; type: functional; conditions: Homo sapiens
# Homo sapiens [4] = species on record: Homo sapiens; test: The drug dependent inhibition of LTB4 biosynthesis in human whole blood (HWB) activated with the ionophore A-23187; type: functional, organism-based; conditions: Homo sapiens, Blood
# [5] = Bioavailability in rat; type: ADME, organism-based; conditions: in vivo
# [6] = plasma level at 2 hr after administration of the compound; type: ADME, organism-based; conditions: rat
# [7] = biological target: T1, Arachidonate 5-lipoxygenase-activating protein (Homo sapiens, UniProt P20292); test: Measuring the affinity of leukotriene synthesis inhibitor for 5-Lipoxygenase activating protein (FLAP) by using [125I]L-691831 as radioligand.
# T1 sequence (P20292 whole entry): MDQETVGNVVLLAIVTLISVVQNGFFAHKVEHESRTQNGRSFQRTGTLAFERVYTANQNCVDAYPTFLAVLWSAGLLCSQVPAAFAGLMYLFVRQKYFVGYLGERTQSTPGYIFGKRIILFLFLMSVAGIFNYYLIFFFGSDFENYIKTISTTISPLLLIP
# [8] = biological target: T1, Arachidonate 5-lipoxygenase-activating protein; test: Measuring the affinity of leukotriene synthesis inhibitor for 5-lipoxygenase activating protein by using [125I]L-691831 as radioligand.
# Rattus norvegicus [9] = test: In vivo inhibitory activity against LTB4 biosynthesis by rat pleurisy model (v3h pre treatment time periods); type: functional
# Rattus norvegicus [10] = test: In vivo inhibitory activity against LTB4 biosynthesis by rat pleurisy model (3 pre treatment time periods); type: functional
# Rattus norvegicus [11] = test: In vivo inhibitory activity against LTB4 biosynthesis by rat pleurisy model (6h pre treatment time periods); type: functional
Structure (SMILES),IC50 (Homo sapiens [3]),IC50 (Homo sapiens [4]),IC50 [8],also measured
C[C@@H](COc1ccc2c(c1)c(SC(C)(C)C)c(CC(C)(C)C(=O)O)n2Cc1ccc(Cl)cc1)c1ccccn1,0.002 µM,0.28 µM,,Functional activity in dyspnea model (Rattus norvegicus [1]): 64%; ED50 (Rattus norvegicus [2]): 0.16 mg/kg; bioavailability [5]: 60%; concentration at 2 h [6]: 13 µM; IC50 [7]: 0.006 µM
CC(C)(C)Sc1c(CC(C)(C)C(=O)O)n(Cc2ccc(Cl)cc2)c2ccc(OCc3nc4cc(C(F)(F)F)ccc4s3)cc12,0.022 µM,> 3 µM,0.186 µM,
CC(C)(C)Sc1c(CC(C)(C)C(=O)O)n(Cc2ccc(Cl)cc2)c2c(OCc3ccc4ccccc4n3)cccc12,,,1.95 µM,
COc1ccc2nc(COc3ccc4c(c3)c(SC(C)(C)C)c(CC(C)(C)C(=O)O)n4Cc3ccc(Cl)cc3)sc2c1,0.008 µM,0.67 µM,0.073 µM,
CC(C)(C)Sc1c(CC(C)(C)C(=O)O)n(Cc2ccc(Cl)cc2)c2ccc(OCc3ccncc3)cc12,0.006 µM,> 3 µM,0.048 µM,
CC(C)(C)Sc1c(CC(C)(C)C(=O)O)n(Cc2ccc(Cl)cc2)c2ccc(OCc3cccnc3)cc12,0.008 µM,> 3 µM,0.059 µM,
CC(C)(C)Sc1c(CC(C)(C)C(=O)O)n(Cc2ccc(Cl)cc2)c2cc(OCc3ccc4ccccc4n3)ccc12,,,0.428 µM,
CC(C)(C)Sc1c(CC(C)(C)C(=O)O)n(Cc2ccc(Cl)cc2)c2cccc(OCc3ccc4ccccc4n3)c12,,,0.085 µM,

# More lines, in order of falling IC50 [8], values ahead:
IC50 (Homo sapiens [3]),IC50 (Homo sapiens [4]),IC50 [8],Structure (SMILES),also measured
,,0.048 µM,CC(C)(C)Sc1c(CC(C)(C)C(=O)O)n(Cc2ccc(Cl)cc2)c2ccc(OCc3cnc4ccccc4c3)cc12,
> 0.018 µM,> 3 µM,0.026 µM,CC(C)(C)Sc1c(CC(C)(C)C(=O)O)n(Cc2ccc(Cl)cc2)c2ccc(COCc3ccc4ccccc4n3)cc12,
0.003 µM,0.47 µM,0.012 µM,C[C@H](COc1ccc2c(c1)c(SC(C)(C)C)c(CC(C)(C)C(=O)O)n2Cc1ccc(Cl)cc1)c1ccccn1,
0.003 µM,> 3 µM,0.01 µM,CC(C)(C)Sc1c(CC(C)(C)C(=O)O)n(Cc2ccc(Cl)cc2)c2ccc(OCc3cc4ccccc4cn3)cc12,
0.003 µM,0.41 µM,0.008 µM,CC(C)(C)Sc1c(CC(C)(C)C(=O)O)n(Cc2ccc(Cl)cc2)c2ccc(OCc3cccc(Cl)n3)cc12,Functional activity in dyspnea model (Rattus norvegicus [1]): 34%; bioavailability [5]: 37%; concentration at 2 h [6]: 3.5 µM
0.003 µM,0.27 µM,0.005 µM,CC(C)(C)Sc1c(CC(C)(C)C(=O)O)n(Cc2ccc(Cl)cc2)c2ccc(OCc3cscn3)cc12,Functional activity in dyspnea model (Rattus norvegicus [1]): 61%; bioavailability [5]: 98%; ED50 (Rattus norvegicus [9]): 0.12 mg/kg; concentration at 2 h [6]: 8 µM
0.002 µM,0.13 µM,0.003 µM,CC(C)(C)Sc1c(CC(C)(C)C(=O)O)n(Cc2ccc(Cl)cc2)c2ccc(OCc3ccccn3)cc12,Functional activity in dyspnea model (Rattus norvegicus [1]): 77%; ED50 (Rattus norvegicus [2]): 0.3 mg/kg; bioavailability [5]: 48%; concentration at 2 h [6]: 9 µM; ED50 (Rattus norvegicus [11]): 0.09 mg/kg
0.003 µM,0.26 µM,0.002 µM,CC(C)(C)Sc1c(CC(C)(C)C(=O)O)n(Cc2ccc(Cl)cc2)c2ccc(OCc3nc4ccccc4s3)cc12,Functional activity in dyspnea model (Rattus norvegicus [1]): 45%; ED50 (Rattus norvegicus [10]): 0.85 mg/kg; bioavailability [5]: 81%; concentration at 2 h [6]: 6 µM
0.003 µM,0.98 µM,0.002 µM,CC(C)(C)Sc1c(CC(C)(C)C(=O)O)n(Cc2ccc(Cl)cc2)c2ccc(OCc3ccc4cnccc4n3)cc12,
0.002 µM,0.88 µM,0.002 µM,CC(C)(C)Sc1c(CC(C)(C)C(=O)O)n(Cc2ccc(Cl)cc2)c2ccc(OCc3ccc4cc(F)ccc4n3)cc12,
